Measured values reported in US20070009566A1, “Method and apparatus for treating bacterial infections in devices” (priority 2005, published 2007).
Converted amounts (≈) assume the structure as drawn. Like-named read-outs stand apart in the source and are kept apart here. Where no end group is shown, it is not given here.

Legend:
[1] = system: S. aureus strain Smith diffuse; experiment: Rat central venous catheter (CVC)-associated infection model, lock technique; conditions: day seven; for Quantitative blood culture / Quantitative catheters/venous tissues culture: mean ± S.D.; for Antimicrobial activity in quantitative peripheral blood cultures (in words): at concentration of MBC for adherent cells, compared with untreated control
[2] = system: S. aureus strain Smith diffuse (SD), planktonic organisms; experiment: Susceptibility testing by classical method (microbroth dilution, MIC/MBC, planktonic organisms); assay type: cell-based; conditions: 10 μg of RIP pre-treatment (in 10 μL MH broth/well), 30 minutes
Description: (§1) Organisms: The inventors chose the S. aureus strain Smith diffuse (SD).
National Committee for Clinical Laboratory Standards, Fifth Edition, Approved Standard M7-A5, Wayne, Pa. (2001).

[3] = system: S. aureus strain Smith diffuse (SD), adherent organisms
[4] = system: S. aureus strain Smith diffuse (SD), adherent organisms; experiment: microbe, parasite or virus in culture; conditions: Staphylococcus aureus
[5] = system: S. aureus strain Smith diffuse (SD) biofilm; experiment: Adherent biofilm formation (crystal violet, OD 570 nm); assay type: cell-based; conditions: with addition of RIP into each well; data not shown
Description: as §1
Adherent biofilm formation for susceptibility testing: To develop a biofilm, 50 μL of Triptic Soy broth (“TSB”) containing 10^6 CFU/mL of bacteria was added under aseptic conditions to each well of a tissue culture-treated polystyrene 96-well plate containing 150 μL of TSB-2% glucose. […] To evaluate the formation of adherent biofilm, the remaining attached bacteria were fixed with 0.2 mL of 99% methanol per well, and after 15 min, plates were emptied and left to dry. […] Stepanovic et al., J Microbiol Methods 40:175-179 (2000); and Christensen et al., J Clin Microbiol 22:996-1006 (1985). The plates were air dried. The dye bound to the adherent cells was solubilized with 0.2 mL of 33% (v/v) glacial acetic acid per well.

[6] = antibiotic lock 1,024 μg/ml, 1 hour dwell
[7] = 10 μg of RIP pre-treatment (in 10 μL MH broth/well), 30 minutes
[8] = read-out: MBC, adherent organisms, 10 μg of RIP pre-treatment (in 10 μL MH broth/well), 30 minutes
[9] = read-out: MBC, adherent organisms, without RIP pre-treatment
[10] = read-out: MIC, adherent organisms, 10 μg of RIP pre-treatment (in 10 μL MH broth/well), 30 minutes
[11] = read-out: MIC, adherent organisms, without RIP pre-treatment
[12] = antibiotic lock 8.00 μg/ml (MBC for adherent cells), 1 hour dwell

Molecule	Quantitative blood culture [1, 6]	Quantitative catheters/venous tissues culture [1, 6]	Antimicrobial activity in quantitative peripheral blood cultures (in words) [1]	MBC, planktonic organisms [2] [mg/L]	MIC, planktonic organisms [2] [mg/L]	MIC, adherent organisms [3, 7] [mg/L]	MIC, adherent organisms ([3]; without RIP pre-treatment) [mg/L]	MBC [4, 8] [mg/L]	MBC [4, 9] [mg/L]	MIC [4, 10] [mg/L]	MIC [4, 11] [mg/L]	Quantitative blood culture [1, 12]	Quantitative catheters/venous tissues culture [1, 12]	Slime production (photometrical method) [5]	Quantitative blood culture ([1]; RIP-impregnated CVC alone)	Quantitative catheters/venous tissues culture ([1]; RIP-impregnated CVC alone)
O=C(O)c1cn(C2CC2)c2cc(N3CCNCC3)c(F)cc2c1=O [Ciprofloxacin, ciprofloxacin]	6.6 × 10^1 ± 1.4 × 10^1bc CFU/ml	7.4 × 10^5 ± 2.1 × 10^5bc CFU/ml	weak antimicrobial activity	–	–	–	–	–	–	–	–	–	–	–	–	–
CN[C@H](CC(C)C)C(=O)N[C@H]1C(=O)N[C@@H](CC(N)=O)C(=O)N[C@H]2C(=O)N[C@H]3C(=O)N[C@H](C(=O)N[C@H](C(=O)O)c4cc(O)cc(O)c4-c4cc3ccc4O)[C@H](O)c3ccc(c(Cl)c3)Oc3cc2cc(c3O[C@@H]2O[C@H](CO)[C@@H](O)[C@H](O)[C@H]2O[C@H]2C[C@](C)(N)[C@H](O)[C@H](C)O2)Oc2ccc(cc2Cl)[C@H]1O [Vancomycin]	5.3 × 10^1 ± 1.1 × 10^1bc CFU/ml	5.4 × 10^5 ± 1.6 × 10^5bc CFU/ml	weak antimicrobial activity	2.00 (≈ 1.38 µM)	1.00 (≈ 0.69 µM)	1.00 (≈ 0.69 µM)	2.00 (≈ 1.38 µM)	2 (≈ 1.38 µM)	16 (≈ 11 µM)	1 (≈ 0.69 µM)	2 (≈ 1.38 µM)	–	–	–	–	–
C[C@@H](O)[C@H]1C(=O)N2C(C(=O)O)=C(SCCN=CN)C[C@H]12 [Imipenem, imipenem]	5.7 × 10^1 ± 1.2 × 10^1bc CFU/ml	6.0 × 10^5 ± 1.9 × 10^5bc CFU/ml	–	1.00 (≈ 3.34 µM)	0.50 (≈ 1.67 µM)	0.50 (≈ 1.67 µM)	1.00 (≈ 3.34 µM)	2 (≈ 6.68 µM)	8 (≈ 26.7 µM)	0.5 (≈ 1.67 µM)	1 (≈ 3.34 µM)	5.8 × 10^3 ± 1.2 × 10^3 CFU/ml	6.9 × 10^6 ± 2.1 × 10^6 CFU/ml	–	–	–
YSPWTNF-NH2 [RIP, YSPWTNF-NH2]	–	–	–	–	–	–	–	–	–	–	–	–	–	much lower	3.4 × 10^1 ± 0.8 × 10^1b CFU/ml	1.4 × 10^3 ± 0.3 × 10^3b CFU/ml
